Test results published in PMC6721824, “IGFs Potentiate TAC3-induced SLα Expression via Upregulation of TACR3 Expression in Grass Carp Pituitary Cells” (Cells, 2019).

Key:
[1] = tested on: SLα mRNA expression in grass carp pituitary cells; test: SLα mRNA expression (qPCR) in grass carp pituitary cells; type: cell-based, grass carp (Ctenopharyngodon idellus); settings: for effect on SLα mRNA expression induced by IGF-I or senktide treatment alone: senktide 1 µM, IGF-I 100 nM; for effect on SLα mRNA expression induced by IGF-I or senktide treatment alone / effect on the synergistic effect on SLα mRNA expression caused by IGF-I and senktide cotreatment: inhibitors 10 µM, 2-APB 100 µM, calmidazolium 1 µM (Figure 5A–C); for effect on the synergistic effect on SLα mRNA expression caused by IGF-I and senktide cotreatment: senktide (1 µM) + IGF-I (100 nM); for SLα mRNA levels, activator alone: static incubation for 24 h, 8Br.cAMP 10 µM, forskolin 1 µM, Dic8 100 µM, TPA 10 µM, A23187 100 nM, BayK8644 100 nM (Figure 5D); for enhancement of the stimulatory effects of TAC3 gene products on SLα mRNA expression: IGF-I/-II cotreatment
Protocol: (§1) Grass carp pituitary cells prepared by the trypsin/DNase digestion method were seeded in 24-well plates at ~2.5 × 10^6 cells/mL/well. On the following day, drug treatment was initiated by replacing the old medium with a testing medium with the appropriate levels of test substances, and the cells were then allowed to incubate at 28 °C for the duration as indicated. After drug treatment, total RNA was extracted from individual wells and reversely transcribed as above. The RT samples obtained were subjected to qPCR using a LightCycler SYBR Green I Kit (Roche, Stockholm, Sweden) with the primers mentioned above. In these studies, serial dilutions of plasmid DNA containing the ORF of SLα (GeneBank no.: EF372074) and TACR3 (GenBank no: JQ254913) cDNA were used as the standards for data calibration. Parallel real-time PCR measurement of β-actin was also conducted in individual experiments to serve as the internal control.
(§2) For real-time PCR of SLα and TACR3 mRNA measurement, standard curves with a dynamic range of ≥10^5 and correlation coefficient of ≥0.95 were used for data calibration with the RotorGene-Q software 1.7 (Qiagen) under unsupervised mode. SLα and TACR3 mRNA data were normalized with the β-actin transcript level and then were transformed as a percentage of the mean value in the control group without drug treatment (as “%Ctrl”). For the calcium bioluminescence signals and raw data obtained from luciferase reporter assays, the luminescence signals or luciferase activity was expressed as “relative luminescence unit (RLU)” registered by the fluorescence plate reader. For individual samples of the luciferase reporter assay, the firefly luciferase activity detected was routinely normalized against Renilla Luciferase activity expressed in the same well and expressed as the luciferase activity ration (as “Luc Ratio”). For receptor binding assay, specific binding of FAM-NKBa was measured in terms of “Arbitrary Fluorescence Unit (AFU)”. The six replicates presented (expressed as Mean ± SEM) were pooled results from two individual experiments prior to statistical analysis; all data were tested for normality of distribution using the Shapiro–Wilk normality test. Then, one-way ANOVA and two-way ANOVA were used to test the significant difference according to different experiment groups. The differences between groups were considered as significant at P < 0.05 (“*”) or highly significant at P < 0.01 (“**”).

[2] = tested on: TACR3 mRNA expression in grass carp pituitary cells; test: TACR3 mRNA expression (qPCR) in grass carp pituitary cells; type: cell-based, grass carp (Ctenopharyngodon idellus); settings: for effect on IGF-I-induced TACR3 mRNA expression: 24 h cotreatment with IGF-I (10 nM), inhibitors 10 µM, wortmannin 1 µM, rapamycin 20 nM; for TACR3 mRNA expression, time course: 100 nM, from 1 h to 24 h (Figure 3B); for TACR3 mRNA expression, dose-dependence: 24-h incubation, 0.01–100 nM (Figure 3C)
Protocol: as §1, §2

[3] = target: T1, grass carp TACR3 (Ctenopharyngodon idella, UniProt A0A075BDW2); test: Fluorescence-based receptor binding assay, displacement of FAM-NKBa tracer; parameters: species or system grass carp (Ctenopharyngodon idellus); settings: HEK-293 cells with stable expression of grass carp TACR3, 30 min pretreatment with competitor, then FAM-NKBa (10 nM) 30 min, 37 °C; bound given in μM; read-out: IC50 for displacing FAM-NKBa binding
T1 sequence (A0A075BDW2 1-395): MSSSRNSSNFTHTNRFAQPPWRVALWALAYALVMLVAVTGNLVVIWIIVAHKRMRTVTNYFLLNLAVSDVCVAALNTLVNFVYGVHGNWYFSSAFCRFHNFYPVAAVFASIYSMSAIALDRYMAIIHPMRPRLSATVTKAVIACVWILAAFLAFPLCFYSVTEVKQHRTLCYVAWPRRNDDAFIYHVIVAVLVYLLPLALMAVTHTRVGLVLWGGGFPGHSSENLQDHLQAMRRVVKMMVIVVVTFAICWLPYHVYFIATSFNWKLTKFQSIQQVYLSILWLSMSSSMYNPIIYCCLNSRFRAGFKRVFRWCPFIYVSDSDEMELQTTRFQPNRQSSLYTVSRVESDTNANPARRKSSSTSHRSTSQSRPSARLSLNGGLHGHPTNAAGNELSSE
Protocol: The cells were then harvested and seeded onto 24-well plates at a density of 0.1 million/well and incubated at 37 °C under 5% CO2 for 24 h prior to the experiments. On the day of the experiments, the culture medium was aspirated and replaced with 500 μL serum-free DMEM with or without appropriated levels of unlabeled competitors. Cells were then allowed to incubate for 30 min at 37 °C under 5% CO2 and saturated humidity. FAM Carboxyfluorescein-labeled NKBa, namely FAM-NKBa, was used as a tracer for receptor binding experiments, and a 50-μL volume of FAM-NKBa (10 nM) was added into individual wells. After further incubation for 30 min at 37 °C, the cells were washed twice and with 500 μl PBS each to remove unbound ligands. […] The supernatant from individual wells was then collected in a 96-wells black view plate, and fluorescence signals indicative of FAM-NKBa binding were registered using FluoStar OPTIMA with excitation at 490 nm and emission at 520 nm.
For receptor binding assay, specific binding of FAM-NKBa was measured in terms of “Arbitrary Fluorescence Unit (AFU)”. The six replicates presented (expressed as Mean ± SEM) were pooled results from two individual experiments prior to statistical analysis; all data were tested for normality of distribution using the Shapiro–Wilk normality test. […]

NCCOB(c1ccccc1)c1ccccc1 [2-APB]
effect on SLα mRNA expression induced by IGF-I or senktide treatment alone [1]: attenuated
effect on the synergistic effect on SLα mRNA expression caused by IGF-I and senktide cotreatment [1]: notably suppressed

Nc1ncnc2c1nc(Br)n2[C@@H]1O[C@@H]2COP(=O)(O)O[C@H]2[C@H]1O [8Br.cAMP]
SLα mRNA levels, activator alone [1]: effective in elevating SLα mRNA levels

CNc1ccc2oc(C[C@H]3O[C@@]4(CC[C@H]3C)O[C@H]([C@H](C)C(=O)c3ccc[nH]3)[C@H](C)C[C@H]4C)nc2c1C(=O)O [A23187]
SLα mRNA levels, activator alone [1]: effective in elevating SLα mRNA levels

COC(=O)C1=C(C)NC(C)=C([N+](=O)[O-])C1c1ccccc1C(F)(F)F (stereo not drawn) [BayK8644]
SLα mRNA levels, activator alone [1]: effective in elevating SLα mRNA levels

CCCCCCCC(=O)OCC(CO)OC(=O)CCCCCCC (stereo not drawn) [Dic8]
SLα mRNA levels, activator alone [1]: effective in elevating SLα mRNA levels

CN(C)CCCn1cc(C2=C(c3c[nH]c4ccccc34)C(=O)NC2=O)c2ccccc21 [GF109203X]
effect on SLα mRNA expression induced by IGF-I or senktide treatment alone [1]: attenuated
effect on the synergistic effect on SLα mRNA expression caused by IGF-I and senktide cotreatment [1]: notably suppressed

O=S(=O)(NCCNC/C=C/c1ccc(Br)cc1)c1cccc2cnccc12 [H89]
effect on SLα mRNA expression induced by IGF-I or senktide treatment alone [1]: attenuated
effect on the synergistic effect on SLα mRNA expression caused by IGF-I and senktide cotreatment [1]: notably suppressed

O=P(O)(O)C(O)c1ccc2ccccc2c1 (stereo not drawn) [HNMPA]
effect on IGF-I-induced TACR3 mRNA expression [2]: not effective

CN([C@@H](Cc1ccc(OS(=O)(=O)c2cccc3cnccc23)cc1)C(=O)N1CCN(c2ccccc2)CC1)S(=O)(=O)c1cccc2cnccc12 [KN62]
effect on SLα mRNA expression induced by IGF-I or senktide treatment alone [1]: attenuated
effect on the synergistic effect on SLα mRNA expression caused by IGF-I and senktide cotreatment [1]: notably suppressed

Cl.c1ccc(C2CCCC2NC2=NCCCCCCCCCCC2)cc1 (stereo not drawn) [MDL12330A]
effect on SLα mRNA expression induced by IGF-I or senktide treatment alone [1]: attenuated
effect on the synergistic effect on SLα mRNA expression caused by IGF-I and senktide cotreatment [1]: notably suppressed

COc1cc([C@@H]2c3cc4c(cc3[C@H](O)[C@H]3COC(=O)[C@@H]23)OCO4)cc(OC)c1OC [PPP]
effect on IGF-I-induced TACR3 mRNA expression [2]: partially inhibited

COc1ccc(Cl)cc1NC(=O)Nc1cc(C)nc2ccccc12 [PQ401]
effect on IGF-I-induced TACR3 mRNA expression [2]: totally abolished

CC[C@H](NC(=O)c1c(C)c(-c2ccccc2)nc2ccccc12)c1ccccc1 [SB222200]
effect on the potentiating effect induced by IGF-I + NKBRPa on SLα transcript expression ([1]; antagonist 10 µM, IGF-I (100 nM) + NKBRPa (1 µM) (Figure 4F)): markedly reduced
effect on IGF-I- or NKBRPa-induced SLα transcript expression ([1]; antagonist 10 µM, NKBRPa 1 µM, IGF-I 100 nM (Figure 4F)): suppress

CCCCCCCCCCCCCC(=O)O[C@@H]1[C@@H](C)[C@@]2(O)[C@@H](C=C(CO)C[C@]3(O)C(=O)C(C)=C[C@@H]23)[C@@H]2C(C)(C)[C@]12OC(C)=O [TPA]
SLα mRNA levels, activator alone [1]: effective in elevating SLα mRNA levels

COc1ccc2c(c1)CC[C@@H]1[C@@H]2CC[C@]2(C)[C@@H](NCCCCCCN3C(=O)C=CC3=O)CC[C@@H]12 [U73122]
effect on SLα mRNA expression induced by IGF-I or senktide treatment alone [1]: attenuated
effect on the synergistic effect on SLα mRNA expression caused by IGF-I and senktide cotreatment [1]: notably suppressed

Clc1ccc(C(c2ccc(Cl)cc2)n2cc[n+](CC(OCc3ccc(Cl)cc3Cl)c3ccc(Cl)cc3Cl)c2)cc1 (stereo not drawn) [calmidazolium]
effect on SLα mRNA expression induced by IGF-I or senktide treatment alone [1]: attenuated
effect on the synergistic effect on SLα mRNA expression caused by IGF-I and senktide cotreatment [1]: notably suppressed

C=C[C@@]1(C)CC(=O)[C@]2(O)[C@@]3(C)[C@@H](O)CCC(C)(C)[C@@H]3[C@H](O)[C@H](OC(C)=O)[C@@]2(C)O1 [forskolin]
SLα mRNA levels, activator alone [1]: effective in elevating SLα mRNA levels

COC(=O)C1=C(C)NC(C)=C(C(=O)OC)C1c1ccccc1[N+](=O)[O-] [nifedipine]
effect on SLα mRNA expression induced by IGF-I or senktide treatment alone [1]: attenuated
effect on the synergistic effect on SLα mRNA expression caused by IGF-I and senktide cotreatment [1]: notably suppressed

CO[C@H]1C[C@@H]2CC[C@@H](C)[C@@](O)(O2)C(=O)C(=O)N2CCCC[C@H]2C(=O)O[C@H]([C@H](C)C[C@@H]2CC[C@@H](O)[C@H](OC)C2)CC(=O)[C@H](C)/C=C(\C)[C@@H](O)[C@@H](OC)C(=O)[C@H](C)C[C@H](C)/C=C/C=C/C=C/1C [rapamycin]
effect on IGF-I-induced TACR3 mRNA expression [2]: notably suppressed

COC[C@H]1OC(=O)c2coc3c2[C@@]1(C)C1=C(C3=O)[C@@H]2CCC(=O)[C@@]2(C)C[C@H]1OC(C)=O [wortmannin]
effect on IGF-I-induced TACR3 mRNA expression [2]: notably suppressed

GR64349: TACR2-specific agonist (NK2R agonist, Tocris)
IC50 [3]: > 10 µM

IGF-I: Human insulin-like growth factor I, purchased from Sigma
TACR3 mRNA expression, time course [2]: significantly stimulate TACR3 mRNA expression
TACR3 mRNA expression, dose-dependence [2]: trigger TACR3 mRNA expression in a concentration-related fashion
enhancement of the stimulatory effects of TAC3 gene products on SLα mRNA expression [1]: up to 8 fold increase
SLα mRNA levels, treatment alone, time course ([1]; NKBRPa 1 µM, IGF-I 100 nM (Figure 4A)): induce SLα mRNA levels
NKBRPa-induced SLα transcript level enhanced by IGF-I cotreatment ([1]; NKBRPa (1 µM) + IGF-I (100 nM), especially after 12–24 h): up to 10 folds basal

IGF-II: Human insulin-like growth factor II, purchased from Sigma
TACR3 mRNA expression, time course [2]: significantly stimulate TACR3 mRNA expression
TACR3 mRNA expression, dose-dependence [2]: trigger TACR3 mRNA expression in a concentration-related fashion
enhancement of the stimulatory effects of TAC3 gene products on SLα mRNA expression [1]: up to 8 fold increase

insulin: Human insulin, purchased from Sigma
TACR3 mRNA expression, dose-dependence [2]: not mimicked
